# From US20100179127A1, “PYRIMIDINE DERIVATIVES” (priority 2005, published 2010)
# Where a name gives a salt, the structure may show the parent alone.
# Tested on: not given
# Assay: not given
# Settings: not given
row,SMILES,melting point [°C]
1,"Cc1ncc(-c2ccc(C(F)(F)F)cc2Cl)c(NC2CCCC2)n1 [Example 45, 5-[2-chloro-4-(trifluoromethyl)phenyl]-N-cyclopentyl-2-methylpyrimidin-4-amine]",120 to 132
2,"CC(=O)Nc1ccc(-c2cnc(C)nc2NC2CCCC2)cc1 [Example 46, N-{4-[4-(cyclopentylamino)-2-methylpyrimidin-5-yl]phenyl}acetamide]",203 to 210
3,"Cc1ncc(-c2ccc(C(F)(F)F)cc2C(F)(F)F)c(NC2CCCC2)n1 [Example 41, 5-[2,4-bis(trifluoromethyl)phenyl]-N-cyclopentyl-2-methylpyrimidin-4-amine]",128 to 132
4,"Cc1cccc(-c2c(NC3CCCC3)nc(C)nc2NC2CCCC2)c1 [Example 22, 5-(3-methylphenyl)-N,N′-dicyclopentyl-2-methylpyrimidine-4,6-diamine]",95 to 98
5,"Cc1ncc2c3ccc(C(F)(F)F)cc3n(C3CCCC3)c2n1 [Example 48, 9-cyclopentyl-2-methyl-7-(trifluoromethyl)-9H-pyrimido[4,5-b]indole]",133 to 134
6,"Cc1ncc(-c2cc(C(F)(F)F)cc(C(F)(F)F)c2)c(NC2CCCC2)n1 [Example 30, 5-[3,5-bis(trifluoromethyl)phenyl]-N-cyclopentyl-2-methylpyrimidin-4-amine]",124 to 126
7,"Cc1ccc(-c2c(NC3CCCC3)nc(C)nc2NC2CCCC2)cc1 [Example 20, 5-(4-methylphenyl)-N,N′-dicyclopentyl-2-methylpyrimidine-4,6-diamine]",115 to 128
8,"Cc1ncc(-c2cccc(C(F)(F)F)c2)c(NC2CCCC2)n1 [Example 29, N-cyclopentyl-2-methyl-5-[3-(trifluoromethyl)phenyl]pyrimidin-4-amine]",105 to 108
9,"Cc1ncc(-c2ccc(C(F)(F)F)cn2)c(NC2CCCC2)n1 [Example 47, Cyclopentyl-[2-methyl-5-(5-trifluoromethyl-pyridin-2-yl)-pyrimidin-4-yl]-amine]",130 to 133
10,"Cc1ncc(-c2ccc(F)cc2)c(NC2CCCC2)n1 [Example 39, N-cyclopentyl-5-(4-fluorophenyl)-2-methylpyrimidin-4-amine]",83 to 86
11,"Cc1ncc(-c2ccc(P(=O)(O)O)cc2)c(NC2CCCC2)n1 [Example 51, {4-[4-(cyclopentylamino)-2-methylpyrimidin-5-yl]phenyl}-phosphonic acid]",254 to 259
12,"Cc1ncc(-c2ccccc2C(F)(F)F)c(NC2CCCC2)n1 [Example 44, N-cyclopentyl-2-methyl-5-[2-(trifluoromethyl)phenyl]pyrimidin-4-amine]",80 to 84
13,"C#Cc1nc(C)nc(NC2CCCC2)c1-c1ccc(C(F)(F)F)cc1 [Example 50, N-cyclopentyl-6-ethynyl-2-methyl-5-[4-(trifluoromethyl)phenyl]pyrimidin-4-amine]",159 to 162
14,"Cc1ncc(-c2ccc(C(N)=O)cc2)c(NC2CCCC2)n1 [Example 32, 4-[4-(cyclopentylamino)-2-methylpyrimidin-5-yl]benzamide]",226 to 228
15,"CCc1nc(NC2CCCC2)c(-c2ccccc2)c(NC2CCCC2)n1 [Example 65, N,N′-Dicyclopentyl-2-ethyl-5-phenyl-pyrimidine-4,6-diamine]",70 to 71
16,"Cc1ncc(-c2ccc(C(F)(F)F)cc2)c(NC2CCCCNC2=O)n1 (centres unmarked) [Example 62, 3-[2-Methyl-5-(4-trifluoromethyl-phenyl)-pyrimidin-4-ylamino]-azepan-2-one]",191 to 196
17,"Cc1ncc(C#Cc2ccc(C(F)(F)F)cc2)c(NC2CCCC2)n1 [Example 55, N-cyclopentyl-2-methyl-5-{[4-(trifluoromethyl)phenyl]ethynyl}-pyrimidin-4-amine]",90 to 93
18,"Cc1ncc(-c2ccc3nonc3c2)c(NC2CCCC2)n1 [Example 49, 5-(2,1,3-benzoxadiazol-5-yl)-N-cyclopentyl-2-methylpyrimidin-4-amine]",165 to 167
19,"Cc1ncc(-c2ccc(C(=O)O)cc2)c(NC2CCCC2)n1 [Example 27, 4-[4-(cyclopentylamino)-2-methylpyrimidin-5-yl]benzoic acid]",252 to 255
20,"Cc1ncc(-c2cnc(C(F)(F)F)nc2)c(NC2CCCC2)n1 (as salt: hydrochloride) [Example 54, N-cyclopentyl-2-methyl-2′-(trifluoromethyl)-5,5′-bipyrimidin-4-amine hydrochloride]",249 to 254
21,"COc1ccc(-c2cnc(C)nc2NC2CCCC2)cc1OC [Example 31, N-cyclopentyl-5-(3,4-dimethoxyphenyl)-2-methylpyrimidin-4-amine]",143 to 145
22,"Cc1ncc2c3ccc(C(F)(F)F)cc3c(=O)n(C3CCCC3)c2n1 [Example 53, 5-cyclopentyl-3-methyl-8-(trifluoromethyl)pyrimido[4,5-c]-isoquinolin-6(5H)-one]",137 to 141
23,"Cc1ncc(-c2ccc([N+](=O)[O-])cc2)c(NC2CCCC2)n1 [Example 33, N-cyclopentyl-2-methyl-5-(4-nitrophenyl)pyrimidin-4-amine]",185 to 188
24,Cc1ncc(-c2ccc(Cl)cc2)c(NC2CCCC2)n1,103 to 106
25,"Cc1ncc(-c2ccc(C#N)cc2)c(NC2CCCC2)n1 [Example 36, 4-[4-(cyclopentylamino)-2-methylpyrimidin-5-yl]benzonitrile]",176 to 180

# Molecular target: T1, human GABA-B1b/rat GABA-B2 (UniProt O88871+Q9UBS5)
# T1 construct: expressed in transfected cells; host or cells: CHO-K1 cell line (membranes)
# T1 sequence (Q9UBS5 1-844 isoform Q9UBS5-2): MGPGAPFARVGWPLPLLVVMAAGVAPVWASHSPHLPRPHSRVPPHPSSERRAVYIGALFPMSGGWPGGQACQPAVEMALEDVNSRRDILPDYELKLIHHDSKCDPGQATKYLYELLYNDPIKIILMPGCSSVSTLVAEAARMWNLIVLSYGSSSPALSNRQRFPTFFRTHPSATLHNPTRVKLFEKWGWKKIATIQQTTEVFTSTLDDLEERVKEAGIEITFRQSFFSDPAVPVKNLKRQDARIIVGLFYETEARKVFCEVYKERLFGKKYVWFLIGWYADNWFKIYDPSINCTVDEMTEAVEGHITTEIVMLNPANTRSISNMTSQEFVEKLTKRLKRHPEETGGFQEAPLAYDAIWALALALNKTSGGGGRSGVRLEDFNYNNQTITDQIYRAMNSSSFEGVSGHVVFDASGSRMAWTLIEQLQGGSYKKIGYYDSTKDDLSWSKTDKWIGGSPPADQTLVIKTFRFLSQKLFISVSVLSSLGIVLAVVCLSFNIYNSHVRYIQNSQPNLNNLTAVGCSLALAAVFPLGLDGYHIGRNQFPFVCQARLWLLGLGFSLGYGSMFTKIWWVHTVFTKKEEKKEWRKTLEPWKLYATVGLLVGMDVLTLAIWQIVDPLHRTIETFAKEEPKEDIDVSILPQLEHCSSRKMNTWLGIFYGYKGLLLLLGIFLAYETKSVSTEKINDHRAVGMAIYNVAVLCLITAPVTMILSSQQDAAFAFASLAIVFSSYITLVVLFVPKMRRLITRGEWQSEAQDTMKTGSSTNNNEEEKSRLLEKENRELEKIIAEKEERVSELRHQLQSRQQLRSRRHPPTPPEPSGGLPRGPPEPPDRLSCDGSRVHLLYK
# T1 sequence (O88871 41-940): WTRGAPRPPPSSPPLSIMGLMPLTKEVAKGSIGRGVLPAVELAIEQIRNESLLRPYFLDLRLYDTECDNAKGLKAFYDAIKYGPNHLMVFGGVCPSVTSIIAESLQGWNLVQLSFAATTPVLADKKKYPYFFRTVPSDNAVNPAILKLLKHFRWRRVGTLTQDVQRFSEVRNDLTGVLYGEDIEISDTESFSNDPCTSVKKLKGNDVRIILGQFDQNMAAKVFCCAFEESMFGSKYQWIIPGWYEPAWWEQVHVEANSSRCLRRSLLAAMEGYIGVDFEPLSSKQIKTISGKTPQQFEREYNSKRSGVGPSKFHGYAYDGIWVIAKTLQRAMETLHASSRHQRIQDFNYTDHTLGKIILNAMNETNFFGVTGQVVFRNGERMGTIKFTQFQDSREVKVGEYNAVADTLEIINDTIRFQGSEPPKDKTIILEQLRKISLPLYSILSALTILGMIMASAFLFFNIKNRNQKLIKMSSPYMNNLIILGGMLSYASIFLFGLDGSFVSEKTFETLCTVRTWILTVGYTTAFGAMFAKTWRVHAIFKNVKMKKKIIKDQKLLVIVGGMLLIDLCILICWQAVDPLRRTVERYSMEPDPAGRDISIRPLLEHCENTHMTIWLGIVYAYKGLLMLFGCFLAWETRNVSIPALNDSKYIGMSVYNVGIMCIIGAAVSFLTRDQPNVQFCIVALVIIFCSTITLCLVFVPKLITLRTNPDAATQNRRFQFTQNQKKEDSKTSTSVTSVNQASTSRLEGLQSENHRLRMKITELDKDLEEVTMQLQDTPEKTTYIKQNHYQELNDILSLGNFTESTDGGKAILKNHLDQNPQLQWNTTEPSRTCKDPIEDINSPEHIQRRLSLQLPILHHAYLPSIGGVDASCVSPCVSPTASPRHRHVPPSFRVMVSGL
# Assay: GTPγ[35S] binding, enhancement of GABA-induced binding
# Type: biochemical
# Settings: 1 μM of GABA, 2.5 μM of Cpd; relative to basal activity
# Method: In the functional GTP(γ)^35S assay (Lorenzen A, Fuss M, Vogt H, Schwabe U. Measurement of guanine nucleotide-binding protein activation by A1 adenosine receptor agonists in bovine brain membranes. Stimulation of guanosine-5′-O-(3-[^35S]thio)triphosphate binding. Mol. Pharmacol. 1993; 44:115-123) the agents of the invention enhance the GABA-induced GTP( ? )^35S binding at recombinant GABAB receptors with EC50 values of about 0.1 μM to about 50 μM.
# GTPγ[^35S] binding. The assay mixtures contained 10 μg f membranes from a human GABA-B1b/rat GABA-B2 expressing CHO-K1 cell line in 50 mM Tris-HCl buffer, pH 7.7; 10 mM MgCl2; 1.8 mM CaCl2; 100 mM NaCl 30 μM guanosine 5′-diphosphate (30 μM; Sigma), 0.2 nM [^35S]GTP(γ)S, and test compounds (Urwyler et al, 2001). 96-well Packard Pico-plates (300 μl volume) were used. Non-specific binding was measured in the presence of unlabelled GTP(γ)S (10 μM, Sigma). The reagents were incubated for 40 min at room temperature and subsequently filtered (Packard unifilter-GF/C). After two washes with assay buffer as above the plates were dried for one hour at 50° C., 50 μl of scintillation solution (Microscint) was added and the radioactivity counted. For data analysis, non-specific binding was subtracted from all the other values; the compound effects were expressed relative to basal activity. Prism 3.0 software (Graph Pad software, San Diego, Calif.) was used for all data calculations. (Urwyler S, Mosbacher J, Lingenhoehl K, Heid J, Hofstetter K, Froestl W, Bettler B, Kaupmann K. Mol. Pharmacol. 2001, 60:963-71).
row,SMILES,Biological activity (%)
1,"Cc1ncc(-c2ccc(C(F)(F)F)cc2)c(NC2CCCCNC2=O)n1 (centres unmarked) [Example 62, 3-[2-Methyl-5-(4-trifluoromethyl-phenyl)-pyrimidin-4-ylamino]-azepan-2-one]",77

# Same assay, conditions: 1 μM of GABA, 25 μM of Cpd; relative to basal activity
row,SMILES,Biological activity (%)
1,"Cc1ncc(-c2ccc(C(F)(F)F)cc2)c(NC2CCCCNC2=O)n1 (centres unmarked) [Example 62, 3-[2-Methyl-5-(4-trifluoromethyl-phenyl)-pyrimidin-4-ylamino]-azepan-2-one]",129

# Same assay, conditions: 20 μM of GABA, 2.5 μM of Cpd; relative to basal activity
row,SMILES,Biological activity (%)
1,"Cc1ncc(-c2ccc(C(F)(F)F)cc2)c(NC2CCCCNC2=O)n1 (centres unmarked) [Example 62, 3-[2-Methyl-5-(4-trifluoromethyl-phenyl)-pyrimidin-4-ylamino]-azepan-2-one]",159

# Same assay, conditions: 20 μM of GABA, 25 μM of Cpd; relative to basal activity
row,SMILES,Biological activity (%)
1,"Cc1ncc(-c2ccc(C(F)(F)F)cc2)c(NC2CCCCNC2=O)n1 (centres unmarked) [Example 62, 3-[2-Methyl-5-(4-trifluoromethyl-phenyl)-pyrimidin-4-ylamino]-azepan-2-one]",192
